# The supplement of paper PMC10307832
# Compound: NC(=O)c1ccc(N(C(N)=O)c2c(F)cccc2F)nc1-c1ccc(F)cc1F [VX-702] + COc1cccc2cc(-c3nc([C@H]4CC[C@H](C(=O)O)CC4)n4ncnc(N)c34)[nH]c12 [OSI-027] (partner 0.5 µM)
# Assay: relative viability (nuclei count vs DMSO), 5 days (fraction); higher = more cells survive
# Procedure, shortened: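 A single step with final 0.05% Triton X-100, 1% formaldehyde and 1 ug/ml Hoechst fixed the cells and stained nuclei 5 days after treatment. Lung cancer cell lines in 1536-well plates had been treated by pin tool the day after seeding with one drug alone or a fixed anchor-drug dose plus five library-drug doses (not always all listed) in √10 steps, and nuclei were counted on 4× images. Relative viability is the ratio of nuclei in treated wells to nuclei in vehicle wells, taken as the median of duplicate plates.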
cell line,measurement,setting,value
SW 900,relative viability,first compound 0.02 µM,0.565
same,relative viability,first compound 0.2 µM,0.676
same,relative viability,first compound 0.6325 µM,0.592
same,relative viability,first compound 2 µM,0.765
